Measurements taken from patent publication US12383633B1, “Injectable formulations of PARP inhibitors and uses thereof” (ZYMERON CORPORATION, priority 2024, dated 2025).
Where two headings read alike, the source gives them in different places.

Experiments:
[1] = Description: (§1) 2.5 mL solutions of each excipient with each concentration were prepared by serial dilution of the saturated solution. One vial for each excipient experiment was prepared with 2.5 ml water. To each vial, 50 mg olaparib was added, sonicated, vortexed, and shaken at 40° C. for over 20 hr. After agitation at 25° C., the suspensions were filtered to obtain clear solutions. The clear solutions were analyzed using HPLC.
as §1, with “600 mg/mL” for “saturated”, “mL” for “ml”, “hours.” for “hr.”

[2] = cited from earlier work
[3] = assay type: physicochemical
Description: (§2) Sulfobutylether-β-cyclodextrin-enabled olaparib solubility enhancement experiments were conducted at various olaparib and sulfobutylether-β-cyclodextrin concentrations (FIG. 5). The dissolved quantity of olaparib increased when the concentration of sulfobutylether-β-cyclodextrin increased, indicating the formation of a 1:1 complex between the drug and solubilizer. The apparent complexation constant (K1:1) was calculated to be 432.4 M^−1 at 22° C.
This would be equivalent to >10 and >50 molar and weight ratios, respectively.
as §2, with “rucaparib” for “olaparib”, “6).” for “5).”, “596.7” for “432.4”

[4] = direct injection of 30-40% (w/v), preclinical studies; cited from earlier work

Molecule: OC[C@H]1O[C@@H]2O[C@H]3[C@H](O)[C@@H](O)[C@@H](O[C@H]4[C@H](O)[C@@H](O)[C@@H](O[C@H]5[C@H](O)[C@@H](O)[C@@H](O[C@H]6[C@H](O)[C@@H](O)[C@@H](O[C@H]7[C@H](O)[C@@H](O)[C@@H](O[C@H]8[C@H](O)[C@@H](O)[C@@H](O[C@H]1[C@H](O)[C@H]2O)O[C@@H]8CO)O[C@@H]7CO)O[C@@H]6CO)O[C@@H]5CO)O[C@@H]4CO)O[C@@H]3CO [β-cyclodextrin]
- Solubility Enhancement Factor [1]: 10
- olaparib water solubility improvement by excipient [1]: 10 fold

Molecule: CNCc1ccc(-c2[nH]c3cc(F)cc4c3c2CCNC4=O)cc1 [rucaparib]
- water solubility ([2]; across the physiological pH range): around 1 mg/mL
- apparent complexation constant (K1:1) [3]: 596.7 M⁻¹

Molecule: sulfobutylether-β-cyclodextrin [Sulfobutylether β-cyclodextrin]
- hypertonicity-related adverse effects [4]: did not lead to any hypertonicity-related adverse effects

Molecule: CC(O)COC[C@H]1O[C@@H]2O[C@H]3[C@H](O)[C@@H](O)[C@@H](O[C@H]4[C@H](O)[C@@H](O)[C@@H](O[C@H]5[C@H](O)[C@@H](O)[C@@H](O[C@H]6[C@H](O)[C@@H](O)[C@@H](O[C@H]7[C@H](O)[C@@H](O)[C@@H](O[C@H]8[C@H](O)[C@@H](O)[C@@H](O[C@H]1[C@H](O)[C@H]2O)O[C@@H]8COCC(C)O)O[C@@H]7COCC(C)O)O[C@@H]6COCC(C)O)O[C@@H]5COCC(C)O)O[C@@H]4COCC(C)O)O[C@@H]3COCC(C)O (stereo partly drawn) [HP-β-cyclodextrin, 2-hydroxypropyl-β-cyclodextrin]
- Solubility Enhancement Factor [1]: 324
- olaparib water solubility improvement by excipient [1]: more than 100 fold

Molecule: O=C(c1cc(Cc2n[nH]c(=O)c3ccccc23)ccc1F)N1CCN(C(=O)C2CC2)CC1 [olaparib]
- water solubility [2]: < 0.07 mg/mL
- apparent complexation constant (K1:1) [3]: 432.4 M⁻¹
- equivalent weight ratio sulfobutylether-β-cyclodextrin to olaparib ([3]; to achieve 5 mg/ml olaparib): > 50

Molecule: OC[C@@H](O)[C@@H](O)[C@H](O)[C@H](O)CO [D-mannitol]
- Solubility Enhancement Factor [1]: 1
- saturated water solubility ([2]; 25° C.): 216 mg/mL
